In patent US11254663B2 (BRISTOL-MYERS SQUIBB COMPANY, priority 2019, dated 2022):
Where two headings read alike, the source gives them in different places.

Target: FXR (Homo sapiens (Human), UniProt Q96RI1)
Experiment: transient human FXR/Gal4-luciferase reporter assay
Assay type: cell-based
Summary of the method: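 Compound exposure ran overnight at 37 °C and activity was measured as luminescence with Steady-Glo reagent. The cells were a HEK293 line stably expressing firefly luciferase under five Gal4 response elements. They were transiently transfected, one night beforehand, with a plasmid encoding Gal4 DNA-binding domain fused to the human FXR ligand-binding domain.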

[1] = Gal4-hFXR fusion construct, HEK293 reporter cells, response relative to 8 μM GW-4064

Sequence of FXR (Q96RI1 262-486): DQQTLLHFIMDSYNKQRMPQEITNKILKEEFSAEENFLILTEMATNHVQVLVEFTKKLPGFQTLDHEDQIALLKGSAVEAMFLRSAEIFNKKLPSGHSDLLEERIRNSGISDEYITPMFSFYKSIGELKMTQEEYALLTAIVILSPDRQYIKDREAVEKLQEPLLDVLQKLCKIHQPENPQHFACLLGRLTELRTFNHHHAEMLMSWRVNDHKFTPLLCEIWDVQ

| SMILES | EC50 [1] [nM] | EC50 [nM] |
| --- | --- | --- |
| O=C(N(CC12CCC(c3nc(C4CC4)no3)(CC1)CC2)c1cccc(-c2cnc3cccnn23)c1)C12CC(F)(C1)C2 [Example 318, N-((4-(3-cyclopropyl-1,2,4-oxadiazol-5-yl)bicyclo[2.2.2]octan-1-yl)methyl)-3-fluoro-N-(3-(imidazo[1,2-b]pyridazin-3-yl)phenyl)bicyclo[1.1.1]pentane-1-carboxamide] | 172 |  |
| Cc1nc2ccc(-c3cccc(N(CC45CCC(c6nc(C(C)(C)C)no6)(CC4)CC5)C(=O)C45CC(F)(C4)C5)c3)cc2s1 [Example 362, N-((4-(3-(tert-butyl)-1,2,4-oxadiazol-5-yl)bicyclo[2.2.2]octan-1-yl)methyl)-3-fluoro-N-(3-(2-methylbenzo[d]thiazol-6-yl)phenyl)bicyclo[1.1.1]pentane-1-carboxamide] | 204 |  |
| CCOc1ccc(-c2cccc(N(CC34CCC(c5noc(C(C)C)n5)(CC3)CC4)C(=O)C34CC(F)(C3)C4)c2)cc1 [Example 431, N-(4′-ethoxy-[1,1′-biphenyl]-3-yl)-3-fluoro-N-((4-(5-isopropyl-1,2,4-oxadiazol-3-yl)bicyclo[2.2.2]octan-1-yl)methyl)bicyclo[1.1.1]pentane-1-carboxamide] | 25 |  |
| CCOc1ncc(-c2cccc(N(CC34CCC(c5noc(C(F)F)n5)(CC3)CC4)C(=O)C34CC(F)(C3)C4)c2)cn1 [Example 459, N-((4-(5-(difluoromethyl)-1,2,4-oxadiazol-3-yl)bicyclo[2.2.2]octan-1-yl)methyl)-N-(3-(2-ethoxypyrimidin-5-yl)phenyl)-3-fluorobicyclo[1.1.1]pentane-1-carboxamide] | 192 |  |
| CC(C)(C)c1nc(C23CCC(CN(C(=O)C45CC(F)(C4)C5)c4cccc(-c5ccc6c(c5)OC(F)(F)O6)c4)(CC2)CC3)no1 [Example 457, N-((4-(5-(tert-butyl)-1,2,4-oxadiazol-3-yl)bicyclo[2.2.2]octan-1-yl)methyl)-N-(3-(2,2-difluorobenzo[d][1,3]dioxol-5-yl)phenyl)-3-fluorobicyclo[1.1.1]pentane-1-carboxamide] | 144 |  |
| N#CC1(c2ccc(-c3cccc(N(CC45CCC(c6noc(C7(F)CC7)n6)(CC4)CC5)C(=O)[C@H]4C[C@](O)(C(F)(F)F)C4)c3)cc2F)CC1 [Example 578, (cis)-N-(4′-(1-cyanocyclopropyl)-3′-fluoro-[1,1′-biphenyl]-3-yl)-N-((4-(5-(1-fluorocyclopropyl)-1,2,4-oxadiazol-3-yl)bicyclo[2.2.2]octan-1-yl)methyl)-3-hydroxy-3-(trifluoromethyl)cyclobutane-1-carboxamide] | 92 |  |
| Cc1c(-c2cccc(N(CC34CCC(c5nc(C6CC6)no5)(CC3)CC4)C(=O)C34CC(F)(C3)C4)c2)cn2ncnc2c1C [Example 312, N-((4-(3-cyclopropyl-1,2,4-oxadiazol-5-yl)bicyclo[2.2.2]octan-1-yl)methyl)-N-(3-(7,8-dimethyl-[1,2,4]triazolo[1,5-a]pyridin-6-yl)phenyl)-3-fluorobicyclo[1.1.1]pentane-1-carboxamide] | 916 |  |
| O=C(N(CC12CCC(c3noc(C(F)(F)F)n3)(CC1)CC2)c1cccc(C2CC2)c1)C12CC(F)(C1)C2 [Example 572, N-(3-cyclopropylphenyl)-3-fluoro-N-((4-(5-(trifluoromethyl)-1,2,4-oxadiazol-3-yl)bicyclo[2.2.2]octan-1-yl)methyl)bicyclo[1.1.1]pentane-1-carboxamide] | 146 |  |
| CCOc1ncc(-c2cccc(N(CC34CCC(c5noc(C6(C)COC6)n5)(CC3)CC4)C(=O)[C@H]3C[C@@](C)(O)C3)c2)cn1 [Example 519, (1S,3S)—N-(3-(2-ethoxypyrimidin-5-yl)phenyl)-3-hydroxy-3-methyl-N-((4-(5-(3-methyloxetan-3-yl)-1,2,4-oxadiazol-3-yl)bicyclo[2.2.2]octan-1-yl)methyl)cyclobutane-1-carboxamide] |  | 504 |
| Cc1cnc(-c2cccc(N(CC34CCC(c5nc(C(C)C)no5)(CC3)CC4)C(=O)C34CC(F)(C3)C4)c2)nc1 [Example 393, 3-fluoro-N-((4-(3-isopropyl-1,2,4-oxadiazol-5-yl)bicyclo[2.2.2]octan-1-yl)methyl)-N-(3-(5-methylpyrimidin-2-yl)phenyl)bicyclo[1.1.1]pentane-1-carboxamide] | 49 |  |
| COc1ncc(C23CCC(CN(C(=O)C45CC(F)(C4)C5)c4cccc(-c5ccc6nc(C)sc6c5)c4)(CC2)CO3)cn1 [Example 558, 3-Fluoro-N-((1-(2-methoxypyrimidin-5-yl)-2-oxabicyclo[2.2.2]octan-4-yl)methyl)-N-(3-(2-methylbenzo[d]thiazol-6-yl)phenyl)bicyclo[1.1.1]pentane-1-carboxamide] | 561 |  |
| CC(C)(C)c1nc(C23CCC(CN(C(=O)C45CC(F)(C4)C5)c4ccnc(-c5cnc(C6CC6)nc5)c4)(CC2)CC3)no1 [Example 597, N-((4-(5-(tert-butyl)-1,2,4-oxadiazol-3-yl)bicyclo[2.2.2]octan-1-yl)methyl)-N-(2-(2-cyclopropylpyrimidin-5-yl)pyridin-4-yl)-3-fluorobicyclo[1.1.1]pentane-1-carboxamide] | 226 |  |
| CCOc1ccc(-c2cccc(N(CC34CCC(c5nc(C(C)(C)C)no5)(CC3)CC4)C(=O)C34CC(F)(C3)C4)c2)cc1 [Example 359, N-((4-(3-(tert-butyl)-1,2,4-oxadiazol-5-yl)bicyclo[2.2.2]octan-1-yl)methyl)-N-(4′-ethoxy-[1,1′-biphenyl]-3-yl)-3-fluorobicyclo[1.1.1]pentane-1-carboxamide] | 151 |  |
| Cc1nc2ccc(-c3cccc(N(CC45CCC(c6nnc(C7CC7)o6)(CC4)CC5)C(=O)C4CC(C(F)F)C4)c3)cc2s1 (centres unmarked) [Example 562, N-((4-(5-cyclopropyl-1,3,4-oxadiazol-2-yl)bicyclo[2.2.2]octan-1-yl)methyl)-3-(difluoromethyl)-N-(3-(2-methylbenzo[d]thiazol-6-yl)phenyl)cyclobutane-1-carboxamide] |  | 318 |
| CCc1ccc(-c2cccc(N(CC34CCC(c5noc(C(C)(C)C)n5)(CC3)CC4)C(=O)C34CC(F)(C3)C4)c2)cc1 [Example 456, N-((4-(5-(tert-butyl)-1,2,4-oxadiazol-3-yl)bicyclo[2.2.2]octan-1-yl)methyl)-N-(4′-ethyl-[1,1′-biphenyl]-3-yl)-3-fluorobicyclo[1.1.1]pentane-1-carboxamide] | 106 |  |
| COc1ncc(-c2cccc(N(CC34CCC(c5ccc(C6(C#N)CC6)cc5)(CC3)OC4)C(=O)C34CC(F)(C3)C4)c2)cn1 [Example 351, N-((1-(4-(1-cyanocyclopropyl)phenyl)-2-oxabicyclo[2.2.2]octan-4-yl)methyl)-3-fluoro-N-(3-(2-methoxypyrimidin-5-yl)phenyl)bicyclo[1.1.1]pentane-1-carboxamide] | 266 |  |
| CCOc1ncc(-c2cccc(N(CC34CCC(c5nc(C(C)C)no5)(CC3)CC4)C(=O)C34CC(F)(C3)C4)c2)cn1 [Example 374, N-(3-(2-ethoxypyrimidin-5-yl)phenyl)-3-fluoro-N-((4-(3-isopropyl-1,2,4-oxadiazol-5-yl)bicyclo[2.2.2]octan-1-yl)methyl)bicyclo[1.1.1]pentane-1-carboxamide] | 44 |  |
